In the assay the target is GlmU (glucosamine-1-phosphate acetyltransferase / N-acetylglucosamine-1-phosphate uridyltransferase) (Mycobacterium tuberculosis, UniProt P9WMN3). Nature of the assay: DTNB colorimetric acetyltransferase assay, with Lineweaver-Burk kinetics. It is filed as biochemical.

Molecules are shown by their SMILES.

GlmU (glucosamine-1-phosphate acetyltransferase / N-acetylglucosamine-1-phosphate uridyltransferase), sequence (P9WMN3 2-495 limits assumed): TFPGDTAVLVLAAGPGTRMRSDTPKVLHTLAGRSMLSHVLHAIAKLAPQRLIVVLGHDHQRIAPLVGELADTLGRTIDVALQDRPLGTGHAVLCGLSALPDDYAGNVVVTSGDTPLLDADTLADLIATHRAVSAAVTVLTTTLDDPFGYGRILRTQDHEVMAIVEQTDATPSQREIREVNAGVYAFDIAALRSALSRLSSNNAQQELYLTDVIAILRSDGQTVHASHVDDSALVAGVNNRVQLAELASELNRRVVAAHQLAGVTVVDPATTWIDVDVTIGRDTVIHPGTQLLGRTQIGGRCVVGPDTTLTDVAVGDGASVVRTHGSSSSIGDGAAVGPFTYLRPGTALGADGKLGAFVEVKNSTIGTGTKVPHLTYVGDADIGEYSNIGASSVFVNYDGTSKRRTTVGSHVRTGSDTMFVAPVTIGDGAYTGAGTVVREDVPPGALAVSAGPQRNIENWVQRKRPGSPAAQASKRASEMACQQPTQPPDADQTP

With `O=c1oc2ccccc2c(O)c1Cc1c(O)c2ccccc2oc1=O` [compound 22, 3,3′-methylene-bis-4-hydroxycoumarin], the IC50 (usually the concentration that gives 50% inhibition) was determined as 13.7 µM.

(Values after article PMC6710349, “Action of Dicumarol on Glucosamine-1-Phosphate Acetyltransferase of GlmU and Mycobacterium tuberculosis” (Frontiers in Microbiology, 2019).)
